Measurements taken from article PMC6978316, “Development of chimeric peptides to facilitate the neutralisation of lipopolysaccharides during bactericidal targeting of multidrug-resistant Escherichia coli” (Communications Biology, 2020).
Read-outs that look alike come from different tables or passages of the source. Where a SMILES comes first, the peptide text is derived from it. Bridges are numbered along the chain shown (N, C = ends).

Tests used:
[1] = test system: 1:1 mixture of E. coli CVCC195 and S. aureus ATCC43300; assay type: cell-based, Escherichia coli; Staphylococcus aureus; conditions: Mean
Method: The selectivity of A6, G6, and N6 against Gram-negative and Gram-positive bacteria was determined using the mixed-culture bactericidal kinetics assay, as described in the Supplementary Information.
27 Supplementary Figure 6. Killing selectivity of peptides. A 1:1 mixture of E. coli (Ec) and S. aureus
28 (Sa) was treated with A6 (16 μg per ml), G6 (16 μg per ml) or N6 (2 μg per ml) for 1, 3 and 5 min,
29 respectively; survivors were counted in MH plates. The change in relative ratio of E. coli to S. aureus
30 (Ec/Sa) after treatment with A6, G6 or N6 is shown.
31 independent experiments).
(§1) (1 picture or pasted object on this page, not shown here)
102 Supplementary Methods
103 Mixed-culture bactericidal kinetics of SCPs-A6 and G6. The mid-exponential phage E. coli
104 CVCC195 and S. aureus ATCC43300 cultures were diluted to 2 × 10^5 CFU per ml, mixed (1:1) and
105 added into the 96-well plates. A6, G6 or N6 were added into each well of plates to final concentration
106 of 16 (A6 and G6) or 2 (N6) μg per ml in a 200-μl total volume. An aliquot was removed at 1, 3 and 5
107 min, respectively, and survivors were counted on MH solid plates1–3. […]

MDR E. coli CVCC195 = test: Thermal stability, residual antibacterial activity (inhibition zone); assay type: physicochemical, Escherichia coli; conditions: mean of n = 3
Method: The N6, A6, and G6 solutions were treated at different temperatures (20–100 °C) for 1 h, dissolved and incubated at different pH values (2–10) for 3 h, or incubated with trypsin or pepsin for 4 h. The inhibition zone diameters were measured after incubation at 37 °C for 18–24 h.

E. coli CVCC195 = assay type: cell-based, Escherichia coli; conditions: E. coli CVCC195
Method: Bacterial resistance against the peptides was assessed via the MIC assays. […] After 16–18 h of incubation at 37 °C, cells from the second highest concentration showing visible growth were used to inoculate the subsequent cultures. The MIC values for drug passage cultures were obtained as described above. This process was repeated for 30 d.

E. coli LPS [2] = test: BODIPY-TR-cadaverine (BC) displacement assay; assay type: binding, Escherichia coli; conditions: 100 μM
Method: The affinity of SCPs (A6, G6, and N6) to E. coli LPS was detected by the fluorescent BC probe. The binding of fluorescent probe with LPS can cause fluorescence quenching. When peptides bind to LPS, BC probe can be replaced, which can result in an increase in fluorescence. Equal volumes of LPS (40 μg per ml) and BC probe (10 μM) in 50 mM Tris buffer (pH 7.4) were mixed and added into a black 96-well microtiter plate (180 μl mixture per well), followed by the addition of different concentrations of A6, G6, or N6 (20 μl per well). Ampicillin and PMB were used as the negative and positive control, respectively. Changes in fluorescence were measured by a fluorescence spectrophotometry at room temperature (excitation: 580 nm, emission: 620 nm) and the BC displacement rate was calculated.

binding of LPS to LBP = test: Binding of LPS to LBP on LPS-immobilized plate (ELISA); assay type: biochemical; conditions: mean of n = 3
Method: The 96-well microtiter plates were coated with 4 ng per ml LPS (0.1 M Na2CO3 and 20 mM EDTA, pH 9.6, 50 μl per well) overnight at 4 °C, washed three times with PBST, and blocked with PBS (containing 1% BSA) for 2 h. After washing with PBST again, the plates were incubated at 37 °C for 1 h with different concentrations of peptides (A6, G6, or N6), which were dissolved in Dulbecco's Modified Eagle's (DMEM) medium (containing 10% FBS). After washing, cells were incubated with anti-LBP mAb 6G3 (ThermoFisher) for 1 h at 37 °C and HRP-conjugated rabbit anti-mouse IgG for 1 h at room temperature, respectively. Tetramethylbenzidine (TMB) solution was then added and incubated for 25–30 min. Finally, the reaction was stopped by addition of 0.5 M H2SO4, and the absorbance was measured at 450 nm[50].

[3] = test system: TNF-α, IL-6 and IL-10 in LPS-stimulated RAW 264.7 cells; test: Cytokines in LPS-stimulated macrophages (ELISA); assay type: cell-based, mouse; parameters: unit not given here
Method: Macrophages RAW 264.7 were incubated with LPS (0.1 and 1 μg per ml) that was dissolved in serum-free DMEM medium, and then were treated with A6, G6, N6, or PMB (20 μM) alone in 24-well plates (2.5 × 10^5 cells per well). The cells incubated with serum-free DMEM and LPS were used as a control. After treatment for 2 h, the supernatants were collected and assessed for TNF-α, IL-6, and IL-10 by using the ELISA kits in the Jiaxuan Biotech. Co. Ltd. (Beijing, China).
73 Supplementary Figure 15. Effects of SCPs on cytokines in RAW 264.7 ells. Cells were incubated with 0.1 μg per
74 ml (a) or 1 μg per ml (b) LPS and 20 μM A6, G6, N6 or PMB for 2 h. The levels of TNF-α, IL-6 and IL-10 in
75 supernatants were measured using ELISA. The data are given as the mean ± SD (n = 3 independent experiments).
76 Different lower case letters indicate a significant difference between two groups (p < 0.05).
as §1

E. coli LPS [4] = test: Sepsis mouse model, survival after lethal LPS challenge; assay type: in vivo, ICR mice; conditions: mice, LPS 13.5 mg per kg i.p., 7 d, n = 5; for survival rate: 0.0625 μmol per kg; for mouse survival: 0.125 μmol per kg
Method: The mouse survival was recorded for 7 d. The mice injected with LPS or saline were used as negative or blank controls, respectively.

[5] = 20℃ for 1 h, inhibition zone vs E. coli CVCC195 after 37 °C 18–24 h
[6] = 40℃ for 1 h, inhibition zone vs E. coli CVCC195
[7] = 60℃ for 1 h, inhibition zone vs E. coli CVCC195
[8] = 80℃ for 1 h, inhibition zone vs E. coli CVCC195
[9] = 100℃ for 1 h, inhibition zone vs E. coli CVCC195
[10] = 0.625 μM, LPS-coated plate, peptide in DMEM + 10% FBS, 37 °C, 1 h, anti-LBP mAb, OD450
[11] = RAW 264.7 cells incubated with 0.1 μg per ml LPS
[12] = RAW 264.7 cells incubated with 1 μg per ml LPS

Row | Compound | killing selectivity of peptides ([1]; time 0 min) | killing selectivity of peptides ([1]; time 1 min) | killing selectivity of peptides ([1]; time 3 min) | antibacterial activity after heat treatment (inhibition zone diameter), Mean (MDR E. coli CVCC195; [5]) | antibacterial activity after heat treatment (inhibition zone diameter), Mean (MDR E. coli CVCC195; [6]) | antibacterial activity after heat treatment (inhibition zone diameter), Mean (MDR E. coli CVCC195; [7]) | antibacterial activity after heat treatment (inhibition zone diameter), Mean (MDR E. coli CVCC195; [8]) | antibacterial activity after heat treatment (inhibition zone diameter), Mean (MDR E. coli CVCC195; [9]) | change of MIC over the course of 30 serial passages (E. coli CVCC195) | BC displacement ratio (E. coli LPS [2]) [%] | LPS-LBP binding (relative), Mean (binding of LPS to LBP; [10]) | LPS-LBP binding (relative), Mean (binding of LPS to LBP; 1.25 μM) | LPS-LBP binding (relative), Mean (binding of LPS to LBP; 2.5 μM) | LPS-LBP binding (relative), Mean (binding of LPS to LBP; 5 μM) | LPS-LBP binding (relative), Mean (binding of LPS to LBP; 10 μM) | LPS-LBP binding (relative), Mean (binding of LPS to LBP; 20 μM) | LPS-LBP binding (relative), Mean (binding of LPS to LBP; 40 μM) | IL-6 Mean [3, 11] | IL-10 Mean [3, 11] | TNFα Mean [3, 11] | other results
1 | CC(C)[C@@H]1NC(=O)CNC(=O)[C@H](CC(N)=O)NC(=O)[C@H](CCCNC(=N)N)NC(=O)[C@H](Cc2ccc(O)cc2)NC(=O)[C@H](C(C)C)NC(=O)[C@@H](NC(=O)[C@@H](NC(=O)[C@H](CC(N)=O)NC(=O)[C@H](Cc2c[nH]c3ccccc23)NC(=O)[C@H](C)NC(=O)[C@H](Cc2ccccc2)NC(=O)CNC(=O)[C@H](CO)NC(=O)CNC(=O)CNC(=O)CNC(=O)CNC(=O)[C@H](CCCCN)NC(=O)[C@H](Cc2ccccc2)NC(=O)[C@H](Cc2ccccc2)NC(=O)[C@H](CO)NC(=O)[C@H](C)NC(=O)[C@H](CCCNC(=N)N)NC(=O)[C@@H](NC(=O)[C@H](CCCCN)NC(=O)[C@H](Cc2c[nH]c3ccccc23)NC(=O)[C@H](CCCNC(=N)N)NC(=O)CNC(=O)[C@H](CCC(N)=O)NC(=O)[C@@H](NC(=O)[C@@H](N)CCCNC(=N)N)C(C)C)C(C)C)C(C)C)CSSC[C@@H](C(=O)N[C@@H](Cc2c[nH]cn2)C(=O)N[C@@H](CCCNC(=N)N)C(=O)N[C@@H](CCCNC(=N)N)C(=O)N[C@@H](C)C(=O)N[C@@H](CC(N)=O)C(=O)O)NC(=O)[C@H](C(C)C)NC(=O)[C@H](CCCNC(=N)N)NC1=O [G6] (H-RVQGRWKVRASFFKGGGGSGFAWNVCVYRNGVRVCHRRAN-OH; disulfide 26-35) | 0.9569 | 0.5118 | 0.1311 | 1.451 | 1.421 | 1.5 | 1.473 | 1.413 | hardly changed | 100 | 0.7905 | 0.7506 | 0.344 | 0.2387 | 0.1958 | 0.1311 | 0.1347 | 280.633 | 106.633 | 481.5 | IL-6 Mean [3, 12]: 352.733; IL-10 Mean [3, 12]: 142.667; TNFα Mean [3, 12]: 599.567; survival rate (E. coli LPS [4]): 80%; mouse survival (E. coli LPS [4]): 100%
2 | H-RVQGRWKVRASFFKEAAAKEAAAKGFAWNVCVYRNGVRVCHRRAN-OH (disulfide 31-40) [A6] | 0.9569 | 0.7697 | 0.8015 | 1.498 | 1.533 | 1.494 | 1.5 | 1.477 | hardly changed | 100 | 0.6863 | 0.4991 | 0.4036 | 0.3236 | 0.2858 | 0.2468 | 0.1705 | 246.9 | 89.8 | 410.667 | killing selectivity of peptides ([1]; time 5 min): 0.5904; IL-6 Mean [3, 12]: 216.667; IL-10 Mean [3, 12]: 77.3667; TNFα Mean [3, 12]: 355.9; survival rate (E. coli LPS [4]): 60%; mouse survival (E. coli LPS [4]): 100%
